Results taken from paper PMC10033409, “Autoregulation of GPCR signalling through the third intracellular loop” (Nature, 2023).
Counter-ions that a name gives are not always drawn.

Experiments:
[1] = system: β2AR; experiment: cAMP accumulation (cAMP-Glo), β2AR; format: cell-based, human; conditions: for cAMP response (Average): β2AR L258Azi
[2] = system: endogenous adrenergic receptors in HEK 293T cells; experiment: cAMP accumulation, untransfected cells; format: cell-based, human; conditions: untransfected HEK 293T cells; Isoproterenol 10 µM
Procedure: Resuspended cells were added 1:1 with a 2× concentration of ligand (10 µl final) into an opaque 384-well flat bottom plate (Greiner Bio-One). […]. for FSK inhibition assays with β-ARs, 100 µM metoprolol was used. For dose–response curves, a saturating concentration of forskolin (10 µM) was included as a control to measure cAMP stimulation independent of the transfected receptor. For experiments comparing multiple receptors measuring non-cognate or secondary Gs signalling (Fig. 4e, Extended Data Fig. 8i–k), 500 µM 3-isobutyl-1-methylxanthine (IBMX) was used to inhibit phosphodiesterase activity. For all other experiments, no IBMX was used to minimize cAMP accumulation from endogenous receptors (Extended Data Fig. 6a). For experiments in Fig. 2g and Extended Data Fig. 6b,e, plates were incubated at 37 °C for 10 min to stimulate cAMP production. For all other experiments, plates were incubated at room temperature for 10 min. […] Reactions were quenched and processed for the cAMP-Glo Assay (Promega) following the manufacturer’s instructions. Luminescence was measured on a Tecan Spark plate reader (500 ms integration, one measurement per well). […]

[3] = target: T1, PTH1R (Homo sapiens, UniProt Q03431); experiment: cAMP accumulation, PTH1R; format: cell-based; conditions: PTH1R Wild-Type
T1 construct: expressed in transfected cells; host or cells: HEK 293T
T1 sequence (Q03431 27-593): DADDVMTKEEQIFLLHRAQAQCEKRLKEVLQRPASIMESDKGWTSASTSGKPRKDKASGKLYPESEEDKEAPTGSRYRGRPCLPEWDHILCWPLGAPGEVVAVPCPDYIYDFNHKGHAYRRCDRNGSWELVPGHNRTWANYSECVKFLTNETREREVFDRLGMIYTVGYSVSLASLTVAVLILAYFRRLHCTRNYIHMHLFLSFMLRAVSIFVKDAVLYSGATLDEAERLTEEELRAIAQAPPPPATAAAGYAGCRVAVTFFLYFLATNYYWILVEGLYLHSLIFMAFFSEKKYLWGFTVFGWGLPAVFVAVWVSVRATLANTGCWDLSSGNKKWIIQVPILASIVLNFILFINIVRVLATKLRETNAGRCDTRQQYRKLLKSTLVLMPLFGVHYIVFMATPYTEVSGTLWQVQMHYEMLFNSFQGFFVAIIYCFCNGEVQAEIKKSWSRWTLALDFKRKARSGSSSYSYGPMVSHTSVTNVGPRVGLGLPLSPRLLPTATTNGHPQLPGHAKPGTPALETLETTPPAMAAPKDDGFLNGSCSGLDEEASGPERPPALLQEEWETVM
Procedure: (§1) One millilitre of medium was removed from each well containing transfected cells. The remaining volume was used to gently shear and resuspend the cells by pipetting. The cell mixture was centrifuged (3 min, 300g) and media was removed using a vacuum manifold. […] The cells were washed once by repeating this procedure.
(§2) For all other second messenger assays, expression level and cell density of each condition was estimated through fluorescence. Fluorescence spectra for mCerulean (Horiba Fluoromax 4, excitation 430 nm, emission scan 450–600 nm, bandpass 4 nm) and mCitrine (Horiba Fluoromax 4, excitation 490 nm, emission scan 500–600 nm, bandpass 4 nm) were acquired for each condition. Cells were resuspended at 350,000 ± 30,000 fluorescence counts at a wavelength representing optical density of the sample (excitation 430 nm/emission 450 nm), corresponding with 2 × 10^6 ± 5 × 10^5 cells per m^l. This was confirmed by counting the cells on a haemocytometer (Countess II).
(§3) Resuspended cells were added 1:1 with a 2× concentration of ligand (10 µl final) into an opaque 384-well flat bottom plate (Greiner Bio-One). […] For dose–response curves, a saturating concentration of forskolin (10 µM) was included as a control to measure cAMP stimulation independent of the transfected receptor. […] For all other experiments, plates were incubated at room temperature for 10 min. […] Reactions were quenched and processed for the cAMP-Glo Assay (Promega) following the manufacturer’s instructions. Luminescence was measured on a Tecan Spark plate reader (500 ms integration, one measurement per well).

[4] = system: PTH1R; experiment: cAMP accumulation, PTH1R; format: cell-based, human; conditions: PTH1R B2AR ICL3
Procedure: as §1, §2, §3

[5] = system: PTH1R; experiment: InsP1 accumulation, PTH1R; format: cell-based, human; conditions: PTH1R B2AR ICL3
Procedure: as §1, §2
Resuspended cells were added 1:1 with a 2× concentration of ligand (70 µl final) into an opaque 96-well U-bottom plate (Greiner Bio-One). […] Plates were incubated at 37 °C for 2 h to stimulate InsP1 production. Reactions were quenched and processed for the InsP1 HTRF Assay (CisBio), following a protocol modified to achieve a higher signal to noise ratio. Fifteen microlitres of D2-conjugated InsP1 resuspended in lysis buffer (Cisbio) and 15 µl of terbium cryptate conjugated anti-InsP1 antibody resuspended in lysis buffer (Cisbio) were added to the stimulated cell mixture. Cell lysate was equilibrated for 1 h at ambient temperature with shaking (500 rpm). Reactions were transferred (4 × 20 µl) to a 384-well plate for technical replicates. […] FRET ratio for each reading was calculated as the ratio of acceptor emission to donor emission. InsP1 signal for a drug and transfection combination was calculated as the average FRET ratio of a given transfection condition without drug treatment subtracted from the average FRET ratio of a of a given transfection condition with drug treatment.

[6] = [Isoproterenol] log(M) -8.30103
[7] = [Isoproterenol] log(M) -9.30103

Compound: CC(C)NCC(O)c1ccc(O)c(O)c1 (stereo not drawn) [Isoproterenol, isoproterenol (+)-bitartrate salt]
- Emax (Average) ([1]; β2AR L258 (L258Azi), fit of the isoproterenol concentration-response of Extended Data Figure 3B): 1.23E+05
- cAMP response (Average) ([1]; Log (Isoproterenol (M)) -4): 1.30E+05
- cAMP response (Average) ([1]; Log (Isoproterenol (M)) -5): 1.30E+05
- cAMP response (Average) ([1]; Log (Isoproterenol (M)) -6): 1.28E+05
- cAMP response (Average) ([1]; Log (Isoproterenol (M)) -7): 1.04E+05
- cAMP response (Average) ([1]; Log (Isoproterenol (M)) -7.52288): 1.08E+05
- cAMP response (Average) ([1]; Log (Isoproterenol (M)) -8): 1.10E+05
- cAMP response (Average) ([1]; Log (Isoproterenol (M)) -8.52288): 6.79E+04
- cAMP response (Average) ([1]; Log (Isoproterenol (M)) -9): 4.10E+04
- cAMP response (Average) ([1]; Log (Isoproterenol (M)) -9.52288): 2.28E+04
- cAMP response (Average) ([1]; Log (Isoproterenol (M)) -10): -8.91E+03
- cAMP response (Average) ([1]; Log (Isoproterenol (M)) -10.5229): -2.86E+04
- cAMP response (Average) ([1]; Log (Isoproterenol (M)) -11): -9.58E+03
- cAMP response (Average) ([1]; Log (Isoproterenol (M)) -12): -4.68E+03
- cAMP response (Average) ([1]; Log (Isoproterenol (M)) -13): 2.29E+03
- cAMP generated from endogenous receptors [2]: only detected in the presence of 500 µM IBMX
- cAMP (Isoproterenol/Forskolin Maximum), Average ([3]; [Isoproterenol] log(M) -5): 0.55
- cAMP (Isoproterenol/Forskolin Maximum), Average ([3]; [Isoproterenol] log(M) -6): 0.57
- cAMP (Isoproterenol/Forskolin Maximum), Average ([3]; [Isoproterenol] log(M) -7): 0.59
- cAMP (Isoproterenol/Forskolin Maximum), Average ([3]; [Isoproterenol] log(M) -8): 0.43
- cAMP (Isoproterenol/Forskolin Maximum), Average [3, 6]: 0.44
- cAMP (Isoproterenol/Forskolin Maximum), Average ([3]; [Isoproterenol] log(M) -9): 0.10
- cAMP (Isoproterenol/Forskolin Maximum), Average [3, 7]: 0.00476
- cAMP (Isoproterenol/Forskolin Maximum), Average ([3]; [Isoproterenol] log(M) -10): -0.0216
- cAMP (Isoproterenol/Forskolin Maximum), Average ([3]; [Isoproterenol] log(M) -11): -0.00704
- cAMP (Isoproterenol/Forskolin Maximum), Average ([3]; [Isoproterenol] log(M) -12): -0.08
- cAMP (Isoproterenol/Forskolin Maximum), Average ([4]; [Isoproterenol] log(M) -5): 0.73
- cAMP (Isoproterenol/Forskolin Maximum), Average ([4]; [Isoproterenol] log(M) -6): 0.71
- cAMP (Isoproterenol/Forskolin Maximum), Average ([4]; [Isoproterenol] log(M) -7): 0.69
- cAMP (Isoproterenol/Forskolin Maximum), Average ([4]; [Isoproterenol] log(M) -8): 0.49
- cAMP (Isoproterenol/Forskolin Maximum), Average [4, 6]: 0.39
- cAMP (Isoproterenol/Forskolin Maximum), Average ([4]; [Isoproterenol] log(M) -9): 0.0653
- cAMP (Isoproterenol/Forskolin Maximum), Average [4, 7]: 0.0238
- cAMP (Isoproterenol/Forskolin Maximum), Average ([4]; [Isoproterenol] log(M) -10): -0.0474
- cAMP (Isoproterenol/Forskolin Maximum), Average ([4]; [Isoproterenol] log(M) -11): 0.02
- cAMP (Isoproterenol/Forskolin Maximum), Average ([4]; [Isoproterenol] log(M) -12): -0.0165
- IP1 (AU), Average ([5]; [Isoproterenol] log(M) -5): 0.32 AU
- IP1 (AU), Average ([5]; [Isoproterenol] log(M) -6): 0.35 AU
- IP1 (AU), Average ([5]; [Isoproterenol] log(M) -6.30103): 0.29 AU
- IP1 (AU), Average ([5]; [Isoproterenol] log(M) -7): 0.28 AU
- IP1 (AU), Average ([5]; [Isoproterenol] log(M) -7.30103): 0.15 AU
- IP1 (AU), Average ([5]; [Isoproterenol] log(M) -8): -0.00248 AU
- IP1 (AU), Average [5, 6]: -0.00156 AU
- IP1 (AU), Average [5, 7]: 0.05 AU
- IP1 (AU), Average ([5]; [Isoproterenol] log(M) -10): -0.0155 AU
- IP1 (AU), Average ([5]; [Isoproterenol] log(M) -11): 0.00619 AU
